Here are results for three compounds from paper PMC5913645, “Methyl phenlactonoates are efficient strigolactone analogs with simple structure” (Journal of Experimental Botany, 2017).

Entries after “also recorded” stand apart in the source; their conditions may differ.

The subject of assay [1] is rice d3 mutant. As to the kind of experiment: Rice micro tillering bioassay, d3 mutant. The note with it: 2.5 μM, hydroponic culture; average of four tillers per plant in treated and untreated samples. The class given is in vivo. The procedure: Rice seeds (WT, d3, d10) were surface-sterilized by washing with 70% ethanol for 1 min and then with 2.5% sodium hypochlorite for 15 min. Seeds were then rinsed thoroughly with sterile MilliQ water and incubated in water for 2 d at 30 °C in the dark. Pre-germinated seeds were transferred to filter papers containing half-strength MS medium in 90 mm Petri dishes and incubated at 30 °C under fluorescent white light (130–180 μmol m^−2 s^−1) for 1 week. Seven-day-old seedlings were transferred to 50 ml falcon tubes (one seedling per tube) containing modified half-strength Hoagland nutrient solution and grown in greenhouse. Plants were treated with MPs at 2.5 μM to 2.5 × 10^–7 μM, using GR24 as positive control. The compounds were applied six times, twice a week. Number of tillers per plant, plant height and fresh biomass were measured at final harvest.

The subject of assay [2] is P. ramosa seeds. As to the kind of experiment: P. ramosa seed germination bioassay. The note with it: 1.0 μM. The class given is in vivo, Phelipanche ramosa. How it is done:
Parasitic weed seeds’ (S. hermonthica and P. ramosa) germination activity was studied as described previously ([Jamil et al., 2012]). Six pre-conditioned seed discs were placed in a 90 mm Petri dish containing a filter paper ring wetted with 0.9 ml sterile MilliQ water. Then 50 μl of SL analog solution (10^–5–10^–12 M) was applied on each of the six discs, for each concentration. GR24 solutions with equal concentrations and sterile MilliQ water were included as a positive and negative control, respectively. After application, seeds of S. hermonthica and P. ramosa were incubated in dark at 30 °C for 2 d and at 25 °C for 4 d, respectively. Germination (seeds with radicle emerging through the seed coat) was scored under a binocular microscope, and germination rate (%) was calculated.

Assay [3] deals with artificially infested soil and pearl millet as a host. Nature of the assay: Trial in Burkina Faso, boxes with artificially infested soil. The class given is in vivo. The note with it: 1 × 1 m^2 wooden boxes, to be published. An excerpt:
This activity was around 17 times weaker than that of GR24, pointing to MP1 as a suitable candidate for the suicidal germination approach. Very recently, we have evaluated the activity of MP1 in a trial conducted in Burkina Faso, in which we used 1 × 1 m^2 wooden boxes filled with artificially infested soil and pearl millet as a host. […] Apart from these three compounds, we observed lower germination activity with P. ramosa seeds than with those of S. hermonthica.

In assay [4] the test system is Arabidopsis seedlings. As to the kind of experiment: Arabidopsis hypocotyl elongation assay. It counts as in vivo. The note with it: 1.0 μM, continuous red light. How it is done: Sterilized Arabidopsis seeds were sown on half-strength MS (with 0.5% sucrose+1% agar, 0.5 g l^−1 MES, pH 5.7) plates supplemented with MPs or GR24 (at 1.0 μM). Plates were stored at 4 °C in darkness for 3 d. To initiate germination, plates were exposed to continuous white light for 24 h, then transferred to continuous monochromatic red light (20 μmol m^−2 s^−1, 22 °C) conditions for another 4 d. For hypocotyl length measurement, at least 30 seedlings were measured using the freely available ImageJ software (http://rsbweb.nih.gov/ij/) after taking digital photographs. A monochromatic red light source was applied as described previously ([Wu and Yang, 2010]). Light flow rates were measured using a Li250 quantum photometer (Li-Cor, Lincoln, NE, USA).

In the case of `CC1=CC(OC=C2C(=O)OC3c4ccccc4CC23)OC1=O` (stereo not shown) [GR24, reference compound], the “high-tillering phenotype of SL-insensitive d3 mutant” value in assay [1] was “neither MPs nor GR24 could restore the high-tillering phenotype”.

`COC(=O)/C(=C/OC1C=C(C)C(=O)O1)c1ccc([N+](=O)[O-])cc1` (stereo not shown) [MP1, (E)-methyl 3-(4-methyl-5-oxo-2,5-dihydrofuran-2-yloxy)-2-(4-nitrophenyl)acrylate]: the “P. ramosa germination activity” value in assay [2] is recorded as “much higher activity; also recorded: quite similar to that of GR24”. In addition, in assay [3], the “germination activity in soil box trial” value is recorded as “significantly higher germination activity than GR24”.

Turning to `COC(=O)/C(=C/OC1C=C(C)C(=O)O1)c1ccc(Cl)cc1` (stereo not shown) [MP7], in assay [4], the “inhibition of hypocotyl growth” value was “stronger inhibitory effect than GR24”.
